These results are taken from ChEMBL document CHEMBL1133672, “Replacement of glycine with dicarbonyl and related moieties in analogues of the C-terminal pentapeptide of cholecystokinin: CCK(2) agonists displaying a novel binding mode” (J Med Chem, 2000).

Molecules are shown by their SMILES. Numbered stars: 1 amine (or outer) side, 2 acyl side, 3 side chain; on linkers, the order of the positions; unused ones are H or OH. Square brackets hold non-standard residues; d marks the D form. Peptide text beside a SMILES is read from it. * marks the point of attachment. NMeNle = CCCC[C@H](NC)C(=O)O; Suc = O=C(CCC(=O)[*:2])[*:1]; Malonamoyl = NC(=O)CC(=O)*; X3 = O=C(CS(=O)(=O)O)*; Boc = CC(C)(C)OC(=O)*; X2 = COC(=O)CC(=O)*; βAla = NCCC(=O)O

Assay [1] addresses T1, Cholecystokinin receptor type A (Cavia porcellus, UniProt Q63931).
T1 sequence (Q63931 whole entry): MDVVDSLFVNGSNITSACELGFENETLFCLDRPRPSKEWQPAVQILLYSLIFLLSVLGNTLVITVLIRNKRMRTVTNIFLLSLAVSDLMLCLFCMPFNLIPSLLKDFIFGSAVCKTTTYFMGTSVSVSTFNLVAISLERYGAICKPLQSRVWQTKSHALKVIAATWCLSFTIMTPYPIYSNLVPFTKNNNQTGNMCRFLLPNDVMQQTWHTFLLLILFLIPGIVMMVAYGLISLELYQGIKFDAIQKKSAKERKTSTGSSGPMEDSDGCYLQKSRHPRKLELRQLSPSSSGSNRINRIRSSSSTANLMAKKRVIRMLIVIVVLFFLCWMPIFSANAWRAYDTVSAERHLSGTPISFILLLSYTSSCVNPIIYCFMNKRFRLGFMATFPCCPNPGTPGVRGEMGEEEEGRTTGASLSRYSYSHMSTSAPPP
Nature of the assay: Affinity against Cholecystokinin type A receptor on guinea pig pancreatic membranes.

Assay [2] has as its target T2, Gastrin/cholecystokinin type B receptor (Rattus norvegicus, UniProt P30553).
T2 sequence (P30553 whole entry): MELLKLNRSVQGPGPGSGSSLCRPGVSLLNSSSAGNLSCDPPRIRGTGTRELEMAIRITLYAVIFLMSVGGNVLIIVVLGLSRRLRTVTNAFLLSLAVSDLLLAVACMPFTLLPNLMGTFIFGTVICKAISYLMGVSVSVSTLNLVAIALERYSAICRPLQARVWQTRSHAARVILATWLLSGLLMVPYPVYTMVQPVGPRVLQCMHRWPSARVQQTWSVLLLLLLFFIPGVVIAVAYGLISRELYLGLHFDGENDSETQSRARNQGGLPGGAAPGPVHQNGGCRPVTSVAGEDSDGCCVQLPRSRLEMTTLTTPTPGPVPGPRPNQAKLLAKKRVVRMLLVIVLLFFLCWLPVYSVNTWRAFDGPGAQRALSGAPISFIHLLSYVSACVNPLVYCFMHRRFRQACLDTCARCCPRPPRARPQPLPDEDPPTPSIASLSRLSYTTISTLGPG
Nature of the assay: Compound was tested for binding affinity against Cholecystokinin type B receptor expressed in CHO cells on the rat brain. Type of assay: cell-based.

In assay [3] the target is Gastrin/cholecystokinin type B receptor (Cavia porcellus). Nature of the assay: Binding affinity against cholecystokinin type B receptor on guinea pig cortex.
The target in assay [4] is T2, Gastrin/cholecystokinin type B receptor. Nature of the assay: Affinity against Cholecystokinin type B receptor expressed in CHO cells on rat brain. Format: functional, cell-based.

Broadly, the Ki is the dissociation constant of the complex between target and ligand, obtained from inhibition or displacement. In turn, `CCCC[C@@H](C(=O)N[C@@H](CC(=O)O)C(=O)N[C@@H](Cc1ccccc1)C(N)=O)N(C)C(=O)[C@H](Cc1c[nH]c2ccccc12)NC(=O)[C@H](C)N` came in with an inhibitory constant (Ki) in assay [1] above 3000 nM.

`C[C@@]1(Cc2c[nH]c3ccccc23)NC(=O)CCCCCCC[C@@H](C(=O)N[C@@H](CC(=O)O)C(=O)N[C@@H](Cc2ccccc2)C(N)=O)NC1=O` returned an inhibitory constant (Ki) in assay [1] of 2210 nM.

In turn, `CCCC[C@@H](C(=O)N[C@@H](CC(=O)O)C(=O)N[C@@H](Cc1ccccc1)C(N)=O)N(C)C(=O)[C@H](Cc1c[nH]c2ccccc12)NC(=O)[C@@H](C)N` gave a Ki in assay [1] above 3000 nM.

For `CCCC[C@H](NC(=O)[C@H](Cc1c[nH]c2ccccc12)NC(=O)[C@H]1CCCCNC(=O)C[C@H](NC(=O)OC(C)(C)C)C(=O)N[C@H](Cc2ccc(OS(=O)(=O)O)cc2)C(=O)N[C@@H](CCCC)C(=O)N1)C(=O)N[C@@H](CC(=O)O)C(=O)N[C@@H](Cc1ccccc1)C(N)=O`, affinity in assay [1] was put at a Ki of 2900 nM. That is a single-digit micromolar value.

Consider `CCCC[C@@H](C(=O)N[C@@H](CC(=O)O)C(=O)N[C@@H](Cc1ccccc1)C(N)=O)N(C)C(=O)[C@H](Cc1c[nH]c2ccccc12)NC(=O)OC(C)(C)C` (Boc-W[NMeNle]DF-NH2), for which the Ki in assay [2] is 2.6 nM; in assay [1] it was above 5000 nM; in assay [3] it was 0.8 nM.

As to `CCCC[C@@H](C(=O)N[C@@H](CC(=O)O)C(=O)N[C@@H](Cc1ccccc1)C(N)=O)N(C)C(=O)[C@H](Cc1c[nH]c2ccccc12)NC(=O)CN` (H-GW[NMeNle]DF-NH2), the inhibitory constant (Ki) in assay [1] is above 3000 nM.

In turn, `CCCC[C@@H](C(=O)N[C@@H](CC(=O)O)C(=O)N[C@@H](Cc1ccccc1)C(N)=O)N(C)C(=O)[C@@H](N)Cc1c[nH]c2ccccc12` (H-W[NMeNle]DF-NH2) yielded a Ki in assay [1] above 3000 nM.

A word on the EC50: it is the concentration needed to bring the measured effect to its halfway point. Turning to `CCCC[C@@H](C(=O)N[C@@H](CC(=O)O)C(=O)N[C@@H](Cc1ccccc1)C(N)=O)N(C)C(=O)[C@H](Cc1c[nH]c2ccccc12)NC(=O)CC(N)=O` (Malonamoyl-W[NMeNle]DF-NH2), the EC50 in assay [4] is 1.64 nM. Besides, the affinity in assay [1] corresponds to a Ki of 22800 nM.

As for `CCCC[C@@H](C(=O)N[C@@H](CC(=O)O)C(=O)N[C@@H](Cc1ccccc1)C(N)=O)N(C)C(=O)[C@H](Cc1c[nH]c2ccccc12)NC(=O)CCC(=O)O` (Suc-W[NMeNle]DF-NH2), in assay [1], the Ki is above 3000 nM.

In the case of `CCCC[C@@H](C(=O)N[C@@H](CC(=O)O)C(=O)N[C@@H](Cc1ccccc1)C(N)=O)N(C)C(=O)[C@H](Cc1c[nH]c2ccccc12)NC(=O)CC(=O)OC` (X2-W[NMeNle]DF-NH2), the concentration for a half-maximal effect (EC50) in assay [4] stood at 2 nM.

In turn, `CCCC[C@@H](C(=O)N[C@@H](CC(=O)O)C(=O)N[C@@H](Cc1ccccc1)C(N)=O)N(C)C(=O)[C@H](Cc1c[nH]c2ccccc12)NC(=O)CS(=O)(=O)O` (X3-W[NMeNle]DF-NH2) showed an EC50 in assay [4] of 0.56 nM. Against the preceding compound, the EC50 is about 3.6-fold lower.

In turn, `CCCC[C@@H](C(=O)N[C@@H](CC(=O)O)C(=O)N[C@@H](Cc1ccccc1)C(N)=O)N(C)C(=O)[C@H](Cc1c[nH]c2ccccc12)NC(=O)CCNC(=O)OC(C)(C)C` ({Boc-βAla}-W[NMeNle]DF-NH2) returned a Ki in assay [1] of 4620 nM.
